Laboratory results taken from patent US20260167620A1, “MULTIFUNCTIONAL COMPOUND CAPABLE OF DEGRADING BTK KINASE, AND COMPOSITION AND USE” (HANGZHOU HEALZEN THERAPEUTICS CO., LTD., priority 2021, published 2026).

Molecular target: T1, BTK (Homo sapiens, UniProt Q06187)
T1 construct: endogenous in cells; host or cells: Mino cells
Assay: BTK degradation activity test in Mino cells (Westernblot or Elisa)
Type: cell-based
Conditions: 24-72 h incubation
Experimental: The Mino cell line cells are 0.5˜1 million/well in 6-well plates. The compounds are diluted to different concentrations, added to the plate, and after 24-72 h of incubation, the cells are collected. After the cells were lysed, the total protein concentration in each well was determined with a BCA kit. The amount of BTK is determined using the Westernblot or Elisa method.

T1 sequence (Q06187 whole entry): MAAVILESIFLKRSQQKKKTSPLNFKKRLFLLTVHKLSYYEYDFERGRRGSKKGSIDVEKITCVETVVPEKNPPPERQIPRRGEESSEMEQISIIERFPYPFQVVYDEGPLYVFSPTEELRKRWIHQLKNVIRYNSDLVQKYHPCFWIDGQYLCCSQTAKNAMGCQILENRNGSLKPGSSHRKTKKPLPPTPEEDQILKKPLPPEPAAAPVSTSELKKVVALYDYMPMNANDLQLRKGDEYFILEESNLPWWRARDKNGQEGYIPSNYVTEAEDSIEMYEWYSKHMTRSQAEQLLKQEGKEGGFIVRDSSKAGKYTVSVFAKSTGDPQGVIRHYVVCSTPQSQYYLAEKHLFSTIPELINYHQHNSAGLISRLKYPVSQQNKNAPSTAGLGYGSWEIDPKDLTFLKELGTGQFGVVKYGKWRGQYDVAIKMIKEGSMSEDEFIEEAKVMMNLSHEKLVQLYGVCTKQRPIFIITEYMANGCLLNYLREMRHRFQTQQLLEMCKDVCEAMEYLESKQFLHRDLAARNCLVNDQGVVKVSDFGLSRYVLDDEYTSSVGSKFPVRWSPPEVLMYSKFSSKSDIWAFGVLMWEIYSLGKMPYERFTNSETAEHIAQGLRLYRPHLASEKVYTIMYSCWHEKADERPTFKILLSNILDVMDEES

Row | SMILES | DC50 [nM]
1 | NC(=O)c1nnc(N2CCCCC2)nc1Nc1ccc(N2CCN(CC3CCN(c4ccc(N5CCC(=O)NC5=O)cc4)CC3)CC2)c(F)c1 [Compound 080, 5-((4-(4-((1-(4-(2,4-dioxotetrahydropyrimidin-1(2H)-yl)phenyl)piperidin-4-yl)methyl)piperazin-1-yl)-3-fluorophenyl)amino)-3-(piperidin-1-yl)-1,2,4-triazine-6-carboxamide] | < 10
2 | NC(=O)c1nnc(N2CCCCC2)nc1Nc1ccc(N2CCC(CN3CCN(c4ccc(-c5ccc(=O)[nH]n5)cc4C(F)(F)F)CC3)CC2)c(F)c1 [Compound 089, 5-((3-fluoro-4-(4-((4-(4-(6-oxo-1,6-dihydropyridazin-3-yl)-2-(trifluoromethyl)phenyl)piperazin-1-yl)methyl)piperidin-1-yl)phenyl)amino)-3-(piperidin-1-yl)-1,2,4-triazine-6-carboxamide] | < 10
3 | CC(=O)N[C@@H]1CCCN(c2nnc(C(N)=O)c(Nc3ccc(N4CCN(CC5CCN(c6ccc(N7CCC(=O)NC7=O)cc6)CC5)CC4)c(F)c3)n2)C1 [Compound 091, (R)-3-(3-acetamidopiperidin-1-yl)-5-((4-(4-((1-(4-(2,4-dioxotetrahydropyrimidin-1(2H)-yl)phenyl)piperidin-4-yl)methyl)piperazin-1-yl)-3-fluorophenyl)amino)-1,2,4-triazine-6-carboxamide] | < 10
4 | CC(=O)N[C@@H]1CCCN(c2nnc(C(N)=O)c(Nc3ccc(N4CCN(CC5CCN(c6ccc(C(=O)NC7CCC(=O)NC7=O)c(F)c6)CC5)CC4)c(F)c3)n2)C1 (stereo partly drawn) [Compound 093, 3-((R)-3-acetamidopiperidin-1-yl)-5-((4-(4-((1-(4-((2,6-dioxopiperidin-3-yl)carbamoyl)-3-fluorophenyl)piperidin-4-yl)methyl)piperazin-1-yl)-3-fluorophenyl)amino)-1,2,4-triazine-6-carboxamide] | < 10
5 | CC(=O)N[C@@H]1CCCN(c2nnc(C(N)=O)c(Nc3ccc(N4CCN(CC5CCN(c6ncc(-c7ccc(=O)[nH]n7)cc6C(F)(F)F)CC5)CC4)c(F)c3)n2)C1 [Compound 094, (R)-3-(3-acetamidopiperidin-1-yl)-5-((3-fluoro-4-(4-((1-(5-(6-oxo-1,6-dihydropyridazin-3-yl)-3-(trifluoromethyl)pyridin-2-yl)piperidin-4-yl)methyl)piperazin-1-yl)phenyl)amino)-1,2,4-triazine-6-carboxamide] | < 10
6 | CC(=O)N[C@@H]1CCCN(c2nnc(C(N)=O)c(Nc3ccc(N4CCN(CC5CCN(c6ccc(-c7ccc(=O)[nH]n7)cc6C(F)(F)F)CC5)CC4)c(F)c3)n2)C1 [Compound 095, (R)-3-(3-acetamidopiperidin-1-yl)-5-((3-fluoro-4-(4-((1-(4-(6-oxo-1,6-dihydropyridazin-3-yl)-2-(trifluoromethyl)phenyl)piperidin-4-yl)methyl)piperazin-1-yl)phenyl)amino)-1,2,4-triazine-6-carboxamide] | < 10
7 | CC(=O)N[C@@H]1CCCN(c2nnc(C(N)=O)c(Nc3ccc(N4CCN(CC5CCN(c6ccc(NC7CCC(=O)NC7=O)nc6)CC5)CC4)c(F)c3)n2)C1 (stereo partly drawn) [Compound 096, 3-((R)-3-acetamidopiperidin-1-yl)-5-((4-(4-((1-(6-((2,6-dioxopiperidin-3-yl)amino)pyridin-3-yl)piperidin-4-yl)methyl)piperazin-1-yl)-3-fluorophenyl)amino)-1,2,4-triazine-6-carboxamide] | < 10
8 | CC(=O)N[C@@H]1CCCN(c2nnc(C(N)=O)c(Nc3ccc(N4CCN(CC5CCN(c6ccc(NC7CCC(=O)NC7=O)c(F)c6)CC5)CC4)c(F)c3)n2)C1 (stereo partly drawn) [Compound 097, 3-((R)-3-acetamidopiperidin-1-yl)-5-((4-(4-((1-(4-((2,6-dioxopiperidin-3-yl)amino)-3-fluorophenyl)piperidin-4-yl)methyl)piperazin-1-yl)-3-fluorophenyl)amino)-1,2,4-triazine-6-carboxamide] | < 10

Now from value to compound:

Row | DC50 [nM] | SMILES
9 | < 10 | CC(C)(C)C(=O)OCN1C(=O)CCC(N2C(=O)c3ccc(N4CCC(CN5CCC(c6ccc(Nc7nc(N8CCCCC8)nnc7C(N)=O)cc6)CC5)C4)cc3C2=O)C1=O (centres unmarked) [Compound 062, (3-(5-(3-((4-(4-((6-carbamoyl-3-(piperidin-1-yl)-1,2,4-triazin-5-yl)amino)phenyl)piperidin-1-yl)methyl)pyrrolidin-1-yl)-1,3-dioxoisoindolin-2-yl)-2,6-dioxopiperidin-1-yl) methyl pivalate]
10 | < 10 | CN1CCN(c2nnc(C(N)=O)c(Nc3ccc(C4CCN(CC5CCN(c6ccc7c(c6)C(=O)N(C6CCC(=O)N(COC(=O)C(C)(C)C)C6=O)C7=O)C5)CC4)cc3)n2)CC1 (centres unmarked) [Compound 063, (3-(5-(3-((4-(4-((6-carbamoyl-3-(4-methylpiperazin-1-yl)-1,2,4-triazin-5-yl)amino)phenyl)piperidin-1-yl)methyl)pyrrolidin-1-yl)-1,3-dioxoisoindolin-2-yl)-2,6-dioxopiperidin-1-yl) methyl pivalate]
11 | < 10 | CC(C)(C)C(=O)OCN1C(=O)CCC(N2C(=O)c3ccc(N4CCC(CN5CCN(c6ccc(Nc7nc(N8CCCCC8)nnc7C(N)=O)cc6F)CC5)C4)cc3C2=O)C1=O (centres unmarked) [Compound 064, (3-(5-(3-((4-(4-((6-carbamoyl-3-(piperidin-1-yl)-1,2,4-triazin-5-yl)amino)-2-fluorophenyl)piperazin-1-yl)methyl)pyrrolidin-1-yl)-1,3-dioxoisoindolin-2-yl)-2,6-dioxopiperidin-1-yl) methyl pivalate]
12 | < 10 | CC(C)(C)C(=O)OCN1C(=O)CCN(c2ccc(N3CCN(CC4CCN(c5ccc(Nc6nc(N7CCCCC7)nnc6C(N)=O)cc5F)CC4)CC3)cc2)C1=O [Compound 066, (3-(4-(4-((1-(4-((6-carbamoyl-3-(piperidin-1-yl)-1,2,4-triazin-5-yl)amino)-2-fluorophenyl)piperidin-4-yl)methyl)piperazin-1-yl)phenyl)-2,6-dioxotetrahydropyrimidin-1(2H)-yl) methyl pivalate]
13 | < 10 | NC(=O)c1nnc(N2CCC[C@@H](O)C2)nc1Nc1ccc(C2CCN(CC3CCN(c4ccc5c(c4)C(=O)N(C4CCC(=O)NC4=O)C5=O)C3)CC2)c(F)c1 (stereo partly drawn) [Compound 067, 5-((4-(1-((1-(2-(2,6-dioxopiperidin-3-yl)-1,3-dioxoisoindolin-5-yl)pyrrolidin-3-yl)methyl)piperidin-4-yl)-3-fluorophenyl)amino)-3-((R)-3-hydroxypiperidin-1-yl)-1,2,4-triazine-6-carboxamide]
14 | < 10 | CC(C)(C)C(=O)OCN1C(=O)CCC(N2C(=O)c3ccc(N4CCC(CN5CCC(c6ccc(Nc7nc(N8CCCCC8)nnc7C(N)=O)cc6F)CC5)C4)cc3C2=O)C1=O (centres unmarked) [Compound 068, (3-(5-(3-((4-(4-((6-carbamoyl-3-(piperidin-1-yl)-1,2,4-triazin-5-yl)amino)-2-fluorophenyl)piperidin-1-yl)methyl)pyrrolidin-1-yl)-1,3-dioxoisoindolin-2-yl)-2,6-dioxopiperidin-1-yl) methyl pivalate]
15 | < 10 | CC(OC(=O)C(C)(C)C)N1C(=O)CCC(N2C(=O)c3ccc(N4CCC(CN5CCC(c6ccc(Nc7nc(N8CCCCC8)nnc7C(N)=O)cc6)CC5)C4)cc3C2=O)C1=O (centres unmarked) [Compound 069, 1-(3-(5-(3-((4-(4-((6-carbamoyl-3-(piperidin-1-yl)-1,2,4-triazin-5-yl)amino)phenyl)piperidin-1-yl)methyl)pyrrolidin-1-yl)-1,3-dioxoisoindolin-2-yl)-2,6-dioxopiperidin-1-yl) ethyl pivalate]
16 | < 10 | CC(OC(=O)C(C)(C)C)N1C(=O)CCC(N2C(=O)c3ccc(N4CCC(CN5CCC(c6ccc(Nc7nc(N8CCN(C)CC8)nnc7C(N)=O)cc6)CC5)C4)cc3C2=O)C1=O (centres unmarked) [Compound 070, 1-(3-(5-(3-((4-(4-((6-carbamoyl-3-(4-methylpiperazin-1-yl)-1,2,4-triazin-5-yl)amino)phenyl)piperidin-1-yl)methyl)pyrrolidin-1-yl)-1,3-dioxoisoindolin-2-yl)-2,6-dioxopiperidin-1-yl) ethyl pivalate]
17 | < 10 | CC(OC(=O)C(C)(C)C)N1C(=O)CCC(N2C(=O)c3ccc(N4CCC(CN5CCN(c6ccc(Nc7nc(N8CCCCC8)nnc7C(N)=O)cc6F)CC5)C4)cc3C2=O)C1=O (centres unmarked) [Compound 071, 1-(3-(5-(3-((4-(4-((6-carbamoyl-3-(piperidin-1-yl)-1,2,4-triazin-5-yl)amino)-2-fluorophenyl)piperazin-1-yl)methyl)pyrrolidin-1-yl)-1,3-dioxoisoindolin-2-yl)-2,6-dioxopiperidin-1-yl) ethyl pivalate]
18 | < 10 | CC(OC(=O)C(C)(C)C)N1C(=O)CCN(c2ccc(N3CCN(CC4CCN(c5ccc(Nc6nc(N7CCCCC7)nnc6C(N)=O)cc5F)CC4)CC3)cc2)C1=O (centres unmarked) [Compound 072, 1-(3-(4-(4-((1-(4-((6-carbamoyl-3-(piperidin-1-yl)-1,2,4-triazin-5-yl)amino)-2-fluorophenyl)piperidin-4-yl)methyl)piperazin-1-yl)phenyl)-2,6-dioxotetrahydropyrimidin-1(2H)-yl) ethyl pivalate]
19 | < 10 | CC(C)[C@H](N)C(=O)OCN1C(=O)CCC(N2C(=O)c3ccc(N4CCC(CN5CCC(c6ccc(Nc7nc(N8CCCCC8)nnc7C(N)=O)cc6)CC5)C4)cc3C2=O)C1=O (stereo partly drawn) [Compound 073, (3-(5-(3-((4-(4-((6-carbamoyl-3-(piperidin-1-yl)-1,2,4-triazin-5-yl)amino)phenyl)piperidin-1-yl)methyl)pyrrolidin-1-yl)-1,3-dioxoisoindolin-2-yl)-2,6-dioxopiperidin-1-yl) methyl L-valinate]
20 | < 10 | CC(C)[C@H](N)C(=O)OCN1C(=O)CCC(N2C(=O)c3ccc(N4CCC(CN5CCN(c6ccc(Nc7nc(N8CCCCC8)nnc7C(N)=O)cc6F)CC5)C4)cc3C2=O)C1=O (stereo partly drawn) [Compound 074, (3-(5-(3-((4-(4-((6-carbamoyl-3-(piperidin-1-yl)-1,2,4-triazin-5-yl)amino)-2-fluorophenyl)piperazin-1-yl)methyl)pyrrolidin-1-yl)-1,3-dioxoisoindolin-2-yl)-2,6-dioxopiperidin-1-yl) methyl L-valinate]
